Among the data in patent publication US7786111B2, “Medicaments for the treatment of chronic obstructive pulmonary disease” (Boehringer Ingelheim Pharma GmbH & Co. KG, priority 2002, dated 2010) are melting point values, retold here.

Where a name gives a salt, the structure may show the parent alone.

In general, melting point refers to the temperature of the solid-liquid transition. For `Cc1cc(CC(C)(C)NCC(O)c2cc(O)cc3c2OCC(=O)N3)ccc1F` (centres unmarked) (as salt: hydrochloride) [Example 10, 8-{2-[2-(4-Fluoro-3-methylphenyl)-1,1-dimethylethylamino]-1-hydroxyethyl}-6-hydroxy-4H-benzo[1,4]oxazin-3-one], the melting point fell in the range of 278 to 280 °C. `Cc1cc(F)ccc1CC(C)(C)NCC(O)c1cc(O)cc2c1OCC(=O)N2` (centres unmarked) (as salt: hydrochloride) [Example 11, 8-{2-[2-(4-fluoro-2-methylphenyl)-1,1-dimethylethylamino]-1-hydroxyethyl}-6-hydroxy-4H-benzo[1,4]oxazin-3-one] had a melting point of 278 to 280 °C. On to `Cc1cc(C)cc(CC(C)(C)NCC(O)c2cc(O)cc3c2OCC(=O)N3)c1` (centres unmarked) (as salt: hydrochloride) [Example 15, 8-{2-[2-(3,5-dimethylphenyl)-1,1-dimethylethylamino]-1-hydroxyethyl}-6-hydroxy-4H-benzo[1,4]oxazin-3-one], for which the melting point was 235 to 238 °C.

The compound `CC(C)(Cc1ccc(OCCCC(=O)O)cc1)NCC(O)c1cc(O)cc2c1OCC(=O)N2` (centres unmarked) [Example 16, 4-(4-{2-[2-hydroxy-2-(6-hydroxy-3-oxo-3,4-dihydro-2H-benzo[1,4]oxazin-8-yl)ethylamino]-2-methylpropyl}phenoxy)butyric acid] had a melting point of 201 to 204 °C. In the case of `CC(C)(Cc1ccc(F)cc1F)NCC(O)c1cc(O)cc2c1OCC(=O)N2` (centres unmarked) (as salt: hydrochloride), the melting point was 279 to 280 °C.
